Consider six compounds from ChEMBL document CHEMBL5126567, “Synthesis of novel immunomodulatory 1,4-disubstituted bis-1,2,3-triazoles by using click chemistry and their intracellular mechanism of action” (Bioorg Med Chem Lett, 2022).

Data set [1] concerns J774.2. The experiment in a line: Antiinflammatory activity in LPS-induced mouse J774.2 cells assessed as decrease in IL6 level at 1 to 10 ug/mL measured after 24 hrs by ELISA. Particulars: dose 1-10 µg/ml. In kind it is functional, cell-based. For orientation: In an ELISA, binding on a coated surface is turned into a signal by an enzyme label.
The test system of data set [2] is J774.2. The data set can be described thus: Antiinflammatory activity in LPS-induced mouse J774.2 cells assessed as decrease in GMCSF level at 1 to 10 ug/mL measured after 24 hrs by ELISA. In kind it is functional, cell-based. The conditions noted are these: dose 1-10 µg/ml.
Data set [3] has as its system J774.2. The experiment in a line: Inhibition of PI3K/AKT signalling pathway in LPS-induced mouse J774.2 cells assessed as decrease in phosphorylated PI3K level at 10 ug/mL after 24 hrs by flow cytometry. The format is cell-based. Particulars: dose 10.0 µg/ml.
In data set [4] the test system is J774.2. The experiment in a line: Cytotoxicity against mouse J774.2 cells assessed as cell viability. The format is toxicity, cell-based.
For data set [5], the system named is J774.2. The data set can be described thus: Antiinflammatory activity in LPS-induced mouse J774.2 cells assessed as decrease in TNF-alpha level at 1 to 10 ug/mL measured after 24 hrs by ELISA. The format is functional, cell-based. Particulars: dose 1-10 µg/ml.

Structures are written as SMILES. Calls of active or inactive are those of the source. No cut-off for these calls is given here.

On to `O=C(Cn1cc(C2CC2)nn1)Nc1ccccc1NC(=O)Cn1cc(C2CC2)nn1`, for which the outcome in data set [1], in data set [2] and in data set [5] was Active. For the same compound, in data set [3], the inhibition result is “Active”. For the same compound, in data set [4], the Activity entry is “Non-Toxic”.

Turning to `O=C(Cn1cc(CC2CCCCC2)nn1)Nc1ccccc1NC(=O)Cn1cc(CC2CCCCC2)nn1`, the result in data set [1], in data set [2] and in data set [5] was Active. In addition, the inhibition entry in data set [3] is “Active”. The Activity result in data set [4] is reported as “Non-Toxic”.

Turning to `CCOC(=O)c1cn(CC(=O)Nc2ccccc2NC(=O)Cn2cc(C(=O)OCC)nn2)nn1`, the outcome in data set [1], in data set [2] and in data set [5] was Active. Also, the Activity result in data set [4] was “Non-Toxic”.

As for `O=C(Cn1cc(-c2ccccc2)nn1)Nc1ccccc1NC(=O)Cn1cc(-c2ccccc2)nn1`, the outcome in data set [1], in data set [2] and in data set [5] was Active. Besides, in data set [4], the Activity entry is given as “Non-Toxic”.

Take `CCCC(C)c1cn(CC(=O)Nc2ccccc2NC(=O)Cn2cc(C(C)CCC)nn2)nn1` (stereo not drawn): the result in data set [1], in data set [2] and in data set [5] was Active. Besides, the inhibition entry in data set [3] is “Active”. In addition, in data set [4], the Activity result is given as “Non-Toxic”.

In the case of `O=C(Cn1cc(C2CCCC2)nn1)Nc1ccccc1NC(=O)Cn1cc(C2CCCC2)nn1`, the result in data set [1], in data set [2] and in data set [5] was Active. For the same compound, the inhibition result in data set [3] was “Active”. The Activity entry in data set [4] is “Non-Toxic”.
